Results published in patent US20220265759A1, “COMPOSITION AND METHOD FOR PROMOTING WOUND HEALING” (THE BOARD OF TRUSTEES OF THE UNIVERSITY OF ILLIOIS, priority 2019, published 2022).
Values belong to the compound of their own block, whether it stands above or below them. Square brackets hold non-standard residues; d marks the D form. Ends that are not written are not given here. Peptide text beside a SMILES is read from it. * marks the point of attachment. d2Nal = N[C@H](Cc1ccc2ccccc2c1)C(=O)O; Myristoyl = CCCCCCCCCCCCCC(=O)*; Aib = CC(C)(N)C(=O)O

Columns and labels:
[1] = cited from earlier work
HUVECs = test: Endothelial cell tube formation induced by CCL28; assay type: cell-based, human; conditions: induced by 500 ng/ml CCL28
Method: Endothelial Cell Tube Formation. HUVECs were transfected with eNOS (50 nM), CCR10 (100 nM), or scrambled control (100 nM) siRNA and, after 48 hours, the cells were transferred to 96-well plates preloaded with extracellular matrix sold under the tradename […]®. To examine the CCL28 signaling pathways, HUVECs were pre-incubated with vehicle or specific inhibitors and then stimulated with or without CCL28 as described previously (Chen, et al. (2015) Ann. Rheum. Dis. 74:1898-1906).
The role of CCL28/CCR10 signaling pathways was further investigated in angiogenesis. Pretreatment of cells with 10 μM wortmannin (PI3K inhibitor), 5 μM U0126 (MAPK/ERK inhibitor), 1 mM L-NAME (eNOS inhibitor), 10 μM PP2 (Src kinase inhibitor), and 10 μM STO-609 ([…]) reduced endothelial cell tube formation induced by 500 ng/ml CCL28. […] In addition, CCL28 stimulation of endothelial cells for 24 hours enhanced expression levels of cell adhesion protein […] and anti-apoptotic protein B-cell leukemia/lymphoma-2 (Bcl-2), supporting the proliferation potential of endothelial cells in response to stimulation with CCL28.

CCR10-eNOS interaction [2] = biological target: T1, CCR10-eNOS interaction (Homo sapiens, UniProt P46092); test: Ligand-induced CCR10-eNOS interaction in HUVEC (Co-IP, confocal co-localization); assay type: cell-based
T1 construct: host or cells: HUVEC (primary human umbilical vein endothelial cells)
T1 sequence (P46092 1-362): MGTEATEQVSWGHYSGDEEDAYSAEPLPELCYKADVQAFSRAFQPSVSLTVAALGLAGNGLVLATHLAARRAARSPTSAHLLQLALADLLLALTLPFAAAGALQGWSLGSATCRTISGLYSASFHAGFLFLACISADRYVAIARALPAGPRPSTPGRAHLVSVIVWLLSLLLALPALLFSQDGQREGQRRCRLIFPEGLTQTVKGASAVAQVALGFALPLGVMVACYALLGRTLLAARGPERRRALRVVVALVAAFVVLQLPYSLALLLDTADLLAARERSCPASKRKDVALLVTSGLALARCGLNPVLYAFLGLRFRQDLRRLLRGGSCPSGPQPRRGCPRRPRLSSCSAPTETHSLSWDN
Method: (§1) Co-IP Experiments, cells or mouse wounds were collected after treatment, and lysed in 2% ODG in Tris buffer. The homogenates were further prepared for Co-IP experiments as described in the art (Chen, et al. (2018) Mol. Biol. Cell 29(10):1190-1202; Chen, et al. (2020) FASEB J. 34(4):5838-5850; Chen, et al. (2015) Ann. Rheum. Dis. 74:1898-1906).
Confocal Microscopy. For cellular immunostaining, confluent monolayers of cells grown on coverslips were prepared as described previously (Chen, et al. (2012) Mel. Biol. Cell 23(7):1388-1398). Fluorescent images were obtained using a Zeiss LSM 880 confocal microscope. The co-localization coefficient in specified regions of interest (ROI) were determined using Zeiss Zen software. Briefly, using the Overlay tool, the desired ROI was drawn along the cell edge and the values for the ROIs tabulated. The scatterplot and table were automatically adjusted to the pixel distribution for the selected ROI. The data from different treatment groups were collected and analyzed for statistical significance as described previously (Chen, et al. (2020) FASEB J. 34(4):5838-5850).
To investigate whether CCR10 interacts directly with eNOS, primary culture HUVEC were collected and prepared for co-immunoprecipitation (Co-IP) to assess CCR10-eNOS interaction following stimulation with 5 μM A23187. […] Similar results were obtained in endothelial cells following stimulation with 500 ng/ml human recombinant CCL28. CCR10-eNOS interaction was further supported by confocal microscopy and high-resolution imaging. Upon stimulation with A23187 or CCL28 for 5 minutes, CCR10 co-localized to a greater extent with eNOS on the plasma membrane. Co-localization coefficient in the regions of interest (ROI) in the plasma membrane were quantified from Zeiss LSM 880 confocal microscope images using Zeiss Zen software.

CCR10-eNOS interaction [3] = biological target: T1, CCR10-eNOS interaction; test: Co-IP of CCR10-eNOS interaction in HUVECs stimulated with A23187; assay type: cell-based; conditions: endothelial cells (HUVECs), pretreatment 50 μM, 5 μM A23187 for 5 minutes, vs control peptide
Method: Immunoblot and Co-Immunoprecipitation (Co-IP). After serum starvation, inhibitors were added 45 minutes prior to stimulation for indicated times at 37° C., and cells were then collected and lysed for western blot analysis. After probing for p-eNOS (Ser1177), p-p85 (Tyr458), p-Src (Tyr 416), and p-ERK (T202/Y204), the same blots were stripped and re-probed for total proteins mentioned above. For detection of CCL28-induced protein levels of β-catenin and Bcl-2, near-confluent endothelial cells were incubated with 500 ng/ml CCL28 for 24 hours in EGM-2 medium containing 1% FBS.
as §1
Therefore, the effect of inhibition of CCR10-eNOS interaction was investigated using a panel of cell-permeable peptides based on the sequence of the predicted interaction domain on eNOS. Similar peptides have been described in determining the solution structure of calmodulin bound to the target peptide of eNOS (Piazza, et al. (2014) Biochemistry 53(8):1241-9; Piazza, et al. (2016) Biochemistry 55(42):5962-71). First, myristoylated 20 amino acid peptide (491-[…]-510 (P1); SEQ ID NO:61) was synthesized based on the sequence of human eNOS (which is conserved in mouse eNOS). […] It was subsequently determined whether truncated versions of the CBD-derived peptide would have the same effect.

Compound: CC(C)(N)C(=O)N[C@@H](Cc1c[nH]cn1)C(=O)N[C@H](Cc1ccc2ccccc2c1)C(=O)N[C@H](Cc1ccccc1)C(=O)N[C@@H](CCCCN)C(N)=O [Ipamorelin] (H-[Aib]H[d2Nal][dF]K-NH2)
terminal half-life ([1]; in humans): about 2 hours

Compound: COC(=O)[C@@H](N)CCCNC(=N)N[N+](=O)[O-] [L-NAME, N^G-nitro-L-arginine methyl ester]
endothelial cell tube formation (HUVECs; pretreatment 1 mM): reduced

Compound: CNc1ccc2oc(C[C@H]3O[C@@]4(CC[C@H]3C)O[C@H]([C@H](C)C(=O)c3ccc[nH]3)[C@H](C)C[C@H]4C)nc2c1C(=O)O [Peptide A23187]
binding of CCR10 to eNOS (Co-IP) (CCR10-eNOS interaction [2]; HUVEC, 5 μM): Enhanced
time of maximum CCR10-eNOS binding (CCR10-eNOS interaction [2]; HUVEC, 5 μM): 5 minutes
Co-localization coefficient of CCR10 and eNOS (CCR10-eNOS interaction [2]; plasma membrane ROI, stimulation for 5 minutes, untreated control cells 43%): 81%

Compound: N#CC(=C(/N)Sc1ccccc1N)/C(C#N)=C(\N)Sc1ccccc1N [Peptide U0126]
endothelial cell tube formation (HUVECs; pretreatment 5 μM): reduced

Compound: O=C(O)c1ccc2c3c1cccc3c(=O)n1c3ccccc3nc21 [STO-609]
endothelial cell tube formation (HUVECs; pretreatment 10 μM): reduced

Compound: NC(=O)CC[C@@H]1NC(=O)[C@H](Cc2ccccc2)NC(=O)[C@H](Cc2ccc(O)cc2)NC(=O)[C@@H](N)CSSC[C@@H](C(=O)N2CCC[C@H]2C(=O)N[C@@H](CCCN=C(N)N)C(=O)NCC(N)=O)NC(=O)[C@H](CC(N)=O)NC1=O [vasopressin]
half-life ([1]; in humans): 0.00694 to 0.0243 days

Compound: albiglutide
half-life ([1]; in humans): 6 to 7 days

CCR10-eNOS interaction (Co-IP) (CCR10-eNOS interaction [3]): completely blocked
Compound: myr-FKEVANAVKISASLM (Myristoyl-FKEVANAVKISASLM) [Peptide P2]

CCR10-eNOS interaction (Co-IP) (CCR10-eNOS interaction [3]): completely blocked
CCR10-eNOS interaction (Co-IP) (CCR10-eNOS interaction [3]; listed as Myr-CBD20): significantly reduced
Compound: myr-TRKKTFKEVANAVKISASLM (Myristoyl-TRKKTFKEVANAVKISASLM) [Peptide P1]

CCR10-eNOS interaction (Co-IP) (CCR10-eNOS interaction [3]): completely blocked
Compound: myr-VANAVKISASLM (Myristoyl-VANAVKISASLM) [Peptide P3]

Compound: peginesatide
elimination half-life ([1]; in healthy volunteers): 18.9 h
